“Also recorded” adds a separate entry of the source. Like-named read-outs stand apart in the source and are kept apart here.
Key:
[1] = Chamelogk, chromatographic chameleonicity descriptor (PLRP-S RP-HPLC); assay type: physicochemical; settings: Exp. minus Ext. log k' PLRP-S at 100% MeCN; linear fit at 50, 60, 70% MeCN; 20 mM ammonium acetate pH 7.0; 30 °C
[2] = log kW^IAM and Δ log kW^IAM (IAM chromatography); assay type: physicochemical; settings: for log kW^IAM: IAM column, extrapolated to 100% buffer from 10 to 50% MeCN, pH 7.0; for Δ log kW^IAM: polarity, from log kW^IAM and BRlogD (eq 4, 5)
Method: The mobile phases for every descriptor consisted of isocratic solutions of 20 mM ammonium acetate at pH 7.0 and acetonitrile at various percentages (see the specific descriptor). Small amounts of the 55 compounds were dissolved in buffer/acetonitrile mixtures (v/v) at concentrations ranging from 50 to 100 μg/mL. Subsequently, 10 μL of each solution (injection volume) was injected at an isocratic flow rate of 1 mL/min and analyzed at 30 °C (oven temperature). Chromatographic measurements were then analyzed in duplicate based on the specific chromatographic conditions of each descriptor. […] The retention times of the samples were recorded, and the capacity factor was calculated for each mobile phase condition adapting eq 2, where t0 is the retention time of citric acid.

[3] = physchem; assay type: physicochemical
Method: The mobile phases for every descriptor consisted of isocratic solutions of 20 mM ammonium acetate at pH 7.0 and acetonitrile at various percentages (see the specific descriptor). Small amounts of the 55 compounds were dissolved in buffer/acetonitrile mixtures (v/v) at concentrations ranging from 50 to 100 μg/mL. Subsequently, 10 μL of each solution (injection volume) was injected at an isocratic flow rate of 1 mL/min and analyzed at 30 °C (oven temperature). Chromatographic measurements were then analyzed in duplicate based on the specific chromatographic conditions of each descriptor.
BRlogD[39] required the injection of 55 samples into the X-Bridge column at 60% MeCN (predominant mobile phase constituent). The retention times and dead time (t0, baseline interference) were recorded, and the capacity factor log k’60 was calculated adapting eq 2. Lastly, BRlogD value was calculated from eq 3 [drawing 3] 3

[4] = solubility range class; cited from earlier work
[5] = oral activity; cited from earlier work
[6] = cited from earlier work
[7] = difference between maximum and minimum 3D-PSA among crystallized conformers; cited from earlier work
[8] = XBridge column, 60% MeCN, pH 7.0, read-out: BRlogD
[9] = XBridge Shield RP18 HPLC column, XBridge column, 60% MeCN, pH 7.0, read-out: BRlogD

| SMILES | Chamelogk [1] | log kW^IAM [2] | Δ log kW^IAM [2] | chromatographic logD [3, 8] | LogS [4] | Abs. Route [5] | chromatographic logD ([3]; pH 7) | chromatographic logD [3, 9] | ChameLogD [6] | X-Ray Δ 3D-PSA [7] | BRlogD ([3]; XBridge column, 60% MeCN, pH 7.0) | BRlogD ([3]; pH 7) |
| --- | --- | --- | --- | --- | --- | --- | --- | --- | --- | --- | --- | --- |
| Cc1sc2c(c1C)C(c1ccc(Cl)cc1)=N[C@@H](CC(=O)Nc1ccc(OCCOCCOCCOCCNc3cccc4c3C(=O)N(C3CCC(=O)NC3=O)C4=O)cc1)c1nnc(C)n1-2 (stereo partly drawn) [ARV-825] | 0.72 | 3.49 | 1.31 | 3.49 | Low range | orally active | – | – | – | – | – | – |
| Cc1ncsc1-c1ccc(CNC(=O)[C@@H]2C[C@@H](O)CN2C(=O)[C@@H](NC(=O)COCCOCCOCCNC(=O)C[C@@H]2N=C(c3ccc(Cl)cc3)c3c(sc(C)c3C)-n3c(C)nnc32)C(C)(C)C)cc1 [MZ1] | 1.15 | 2.83 | 2.24 | – | Int. range | not orally bioavailable; also recorded: Non-oral | 1.77 | – | – | – | – | – |
| COC(=O)N[C@H](C(=O)N[C@@H](Cc1ccccc1)[C@@H](O)CN(Cc1ccc(-c2ccccn2)cc1)NC(=O)[C@@H](NC(=O)OC)C(C)(C)C)C(C)(C)C [atazanavir] | 0.33 | 2.74 | 0.87 | – | – | – | – | 3.15 | 1.6 | 34 | – | – |
| Cc1ncsc1-c1ccc(CNC(=O)[C@@H]2C[C@H](O)CN2C(=O)[C@@H](NC(=O)COCCOCCOCCNC(=O)C[C@@H]2N=C(c3ccc(Cl)cc3)c3c(sc(C)c3C)-n3c(C)nnc32)C(C)(C)C)cc1 [cisMZ1] | 1.27 | 2.90 | 2.20 | – | Int. range | Non-oral | 1.87 | – | – | – | – | – |
| Cc1c(O)cccc1C(=O)N[C@@H](CSc1ccccc1)[C@H](O)CN1C[C@H]2CCCC[C@H]2C[C@H]1C(=O)NC(C)(C)C [nelfinavir] | 0.74 | 2.69 | -0.63 | – | – | – | – | 4.73 | 1.4 | – | below 5 | – |
| CC(C)c1nc(CN(C)C(=O)N[C@H](C(=O)N[C@@H](Cc2ccccc2)C[C@H](O)[C@H](Cc2ccccc2)NC(=O)OCc2cncs2)C(C)C)cs1 [ritonavir] | 0.67 | 3.02 | 1.02 | – | – | – | 3.29 | – | 1.6 | 53 | – | – |
| CC(C)(C)NC(=O)[C@@H]1C[C@@H]2CCCC[C@@H]2CN1C[C@@H](O)[C@H](Cc1ccccc1)NC(=O)[C@H](CC(N)=O)NC(=O)c1ccc2ccccc2n1 [saquinavir] | 1.23 | 3.44 | 1.85 | – | – | – | – | – | – | 21 | – | 2.85 |
| CO[C@H]1C[C@@H]2CC[C@@H](C)[C@@](O)(O2)C(=O)C(=O)N2CCCC[C@H]2C(=O)O[C@H]([C@H](C)C[C@@H]2CC[C@@H](O)[C@H](OC)C2)CC(=O)[C@H](C)/C=C(\C)[C@@H](O)[C@@H](OC)C(=O)[C@H](C)C[C@H](C)/C=C/C=C/C=C/1C [sirolimus] | 0.25 | 3.96 | 0.42 | – | – | – | 4.97 | – | 1.4 | – | – | – |
| CCC[C@H](NC(=O)[C@@H]1[C@H]2CCC[C@H]2CN1C(=O)[C@@H](NC(=O)[C@@H](NC(=O)c1cnccn1)C1CCCCC1)C(C)(C)C)C(=O)C(=O)NC1CC1 [telaprevir] | 0.31 | 3.02 | 0.75 | 3.6 | – | – | – | – | – | 32 | – | – |

From PMC10424176, “Chamelogk: A Chromatographic Chameleonicity Quantifier to Design Orally Bioavailable Beyond-Rule-of-5 Drugs” (Journal of Medicinal Chemistry, 2023)
